Measurements reported in patent publication US6524527B2 (Natural Corporation, priority 1998, dated 2003).

What was measured:
Type in all cases: physicochemical
[1] = Oxidation of CLA methyl ester in open test tube, GLC composition; settings: for relative content, Day 0: CLA methyl ester sample before oxidation; for relative content, Day 115: open test tube, 115 days, room temperature, free access to air
Experimental: This example describes the oxidation of CLA exposed to open air. A small sample of methyl ester was prepared and stored in an open test tube for 115 days at room temperature with free access to air. […] A chromatogram of the same sample was also run on a polar column. The results indicated the presence of a large number of short chain polar components (i.e., breakdown products).

[2] = Oil stability index (OSI) of CLA triacylglyceride with added antioxidants; settings: antioxidant added to CLA triacylglyceride, 0-0.1 %
Experimental: In some embodiments, oxidation of CLA is prevented by the addition of metal oxidant chelators or peroxide scavengers to the finished product. In some embodiments, the amount of oxidation is measured by the oil stability index (OSI). The OSI (See e.g., AOCS official method Cd 12b-92) is a measurement of an oil's resistance to oxidation. It is defined mathematically as the time of maximum change of the rate of oxidation. This rate can be determined mathematically. Experimentally, the OSI is calculated by measuring the change in conductivity of deionized water is which volatile organic acids (oxidation products) are dissolved. When performing OSI measurements, it is important to avoid contamination by trace amounts of metals, which can accelerate the oxidation process. This is generally accomplished by careful washing of all glassware used with a cleaning solution lacking chromate or surfactants. Water must be deionized and all solvents must be of a highly purified grade. […]
The oxygen stability index (OSI) was measured using a method known in the art (AOCS official method Cd 12b-92 using an OSI apparatus from Omnion Instruments). […] The conductivity of the water is continually monitored over time. The OSI (the point of maximum change of the rate of oxidation) is determined mathematically. […]

[3] = Peroxide value (PV), colorimetric ferric thiocyanate method; settings: after storage in open glass
Excerpt: The present invention is not limited to any one mechanism. Indeed, an understanding of the mechanism of the invention is not necessary to produce the composition or perform the methods of the present invention.

Compound	relative content, Day 0 [1]	relative content, Day 115 [1]	increase of the OSI value by addition of antioxidant [2]	peroxide values (PV) [3]
CCCCCCCC/C=C\CCCCCCCC(=O)O [C18:1, c9, oleic acid]	4.14	3.19		
CCCCCC/C=C\CCCCCCCCCC(=O)O [C18:1, c11]	0.13	0.10		
CCCCCCCC/C=C/CCCCCCCC(=O)O [C18:1, t9]	0	0.33		
CCCCC/C=C\C/C=C\CCCCCCCC(=O)O [C18:2, c9, c12, 9,12-linoleic acid]	0.06	0.03		
CCCCCCCCCCCCCCCC(=O)O [C 16:0, palmitic acid]	1.36	1027		
CCCCCC/C=C\C=C/CCCCCCCC(=O)O [CLA, c9, c11]	0.11	0		
CCCCCC/C=C/C=C\CCCCCCCC(=O)O [CLA, c9, t11, c9,t11-octadecadienoic]	7.68	0		
CCCCC/C=C\C=C/CCCCCCCCC(=O)O [CLA, c10, c12, c10,c12 octadecadienoic acid]	0.09	0		
CCCCC/C=C\C=C\CCCCCCCCC(=O)O [CLA, t10, c12, t10,c12-octadecadienoic acid]	7.63	0		
Cc1c(C)c2c(c(C)c1O)CC[C@@](C)(CCC[C@H](C)CCC[C@H](C)CCCC(C)C)O2 [alpha-tocopherol]			did not significantly increase	
CCCCC/C=C\C/C=C\CCCCCCCC(=O)O [linoleic acid]				370
